According to patent US8592470B2 (Eisai R&D Management Co., Ltd., priority 2012, dated 2013):

Assays:
CYP2C19 [1] = target: T1, CYP2C19 (Homo sapiens, UniProt P33261); assay: Time-dependent CYP inhibition (Method 1), human hepatic microsome; format: in vitro ADME; conditions: 30 min pre-incubation at 37° C., S-mephenytoin, average, n = 2
T1 construct: human hepatic microsomal fraction containing CYP; from tissue; host or cells: human liver microsomes

CYP2C19 [2] = target: T1, CYP2C19; assay: Competitive CYP inhibition (Method 2), human hepatic microsome; format: in vitro ADME; conditions: S-mephenytoin 40 μM, n = 2, read-out: IC50 score, CYP2C19
Experimental: (§1) The test substance was added at a final concentration of 1 or 10 μM to an enzyme solution (containing human hepatic microsome (0.2 mg/mL), 100 mM Kpi and 0.1 mM EDTA) containing a model substrate solution, and incubated for 10 minutes at 37° C. in the presence of an NADPH generating system. An equal amount of a mixed solution of acetonitrile and methanol (1:1, containing 0.05 μM dextrophan or 0.05 μM propranolol as an internal standard) was added to terminate the reaction, and metabolites of the model substrate in the reaction solution were measured by LC-MS/MS. A similar test was performed without addition of the test substance as a control test. The inhibition rate was determined from the amounts of model substrate metabolites with and without addition of the test substance at each test substance concentration, and the IC50 value was calculated from the inhibition rate (calculation method in accordance with Xenobiotica, 1999, 29(1), 53-75). […] [table]

CYP2C9 [3] = target: T2, CYP2C9 (Homo sapiens, UniProt P11712); assay: as above; format: in vitro ADME; conditions: human liver microsomes, probe tolbutamide 100 μM, n = 2, read-out: IC50 score, CYP2C9
T2 construct: human hepatic microsomal fraction containing CYP; from tissue; host or cells: human liver microsomes
Experimental: as §1

CYP1A2 [4] = target: T3, CYP1A2 (Homo sapiens, UniProt P05177); assay: as above; format: in vitro ADME; conditions: phenacetin 10 μM, n = 2, read-out: IC50 score, CYP1A2
T3 construct: human hepatic microsomal fraction containing CYP; from tissue; host or cells: human liver microsomes
T3 sequence (P05177 1-516): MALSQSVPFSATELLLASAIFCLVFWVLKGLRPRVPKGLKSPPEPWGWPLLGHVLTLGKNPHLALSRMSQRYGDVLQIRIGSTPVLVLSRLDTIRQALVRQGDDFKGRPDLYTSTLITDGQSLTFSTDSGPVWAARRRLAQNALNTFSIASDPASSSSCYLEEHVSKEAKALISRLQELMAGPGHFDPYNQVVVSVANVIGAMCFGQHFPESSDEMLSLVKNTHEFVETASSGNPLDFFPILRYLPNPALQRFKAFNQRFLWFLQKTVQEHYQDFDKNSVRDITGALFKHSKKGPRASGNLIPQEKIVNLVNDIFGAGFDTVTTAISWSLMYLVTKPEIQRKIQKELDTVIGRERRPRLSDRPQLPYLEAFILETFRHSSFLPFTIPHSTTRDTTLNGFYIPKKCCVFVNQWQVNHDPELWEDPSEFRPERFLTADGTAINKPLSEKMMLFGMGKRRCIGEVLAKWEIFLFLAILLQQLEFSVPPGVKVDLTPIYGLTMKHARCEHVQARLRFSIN
Experimental: as §1

CYP2D6 [5] = target: T4, CYP2D6 (Homo sapiens, UniProt P10635); assay: as above; format: in vitro ADME; conditions: bufuralol 10 μM, n = 2, read-out: IC50 score, CYP2D6
T4 construct: human hepatic microsomal fraction containing CYP; from tissue; host or cells: human liver microsomes
Experimental: as §1

CYP3A4 [6] = target: T5, CYP3A4 (Homo sapiens, UniProt P08684); assay: as above; format: in vitro ADME; conditions: midazolam 3 μM, n = 2, read-out: IC50 score, CYP3A4
T5 construct: human hepatic microsomal fraction containing CYP; from tissue; host or cells: human liver microsomes
Experimental: The inhibition rate was determined from the amounts of model substrate metabolites with and without addition of the test substance at each test substance concentration, and the IC50 value was calculated from the inhibition rate (calculation method in accordance with Xenobiotica, 1999, 29(1), 53-75).

[7] = target: T6, endothelin receptor A (EDNRA) (Homo sapiens, UniProt P25101); assay: Suppression of endothelin-induced Ca2+ elevation in EDNRA/293 cells; format: cell-based; conditions: 0.03, 0.1 or 0.3 nM endothelin, FIG. 2 and FIG. 3
T6 construct: The protein coding region of human derived EDNRA (gene number NM_001957.2) was transduced; expressed in transfected cells
T6 sequence (P25101 21-427): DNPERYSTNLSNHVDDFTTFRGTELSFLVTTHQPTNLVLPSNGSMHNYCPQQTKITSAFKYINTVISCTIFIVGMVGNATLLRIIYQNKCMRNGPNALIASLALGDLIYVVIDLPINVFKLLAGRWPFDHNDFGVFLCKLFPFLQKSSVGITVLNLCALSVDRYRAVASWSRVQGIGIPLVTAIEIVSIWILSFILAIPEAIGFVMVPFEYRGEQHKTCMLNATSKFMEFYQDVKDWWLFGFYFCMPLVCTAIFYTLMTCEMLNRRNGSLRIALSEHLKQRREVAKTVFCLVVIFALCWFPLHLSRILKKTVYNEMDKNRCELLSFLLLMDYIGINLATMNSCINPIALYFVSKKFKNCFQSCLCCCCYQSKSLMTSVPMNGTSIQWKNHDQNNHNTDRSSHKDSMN
Source text: The protein coding region of human derived EDNRA (gene number NM_001957.2) was transduced into HEK-293 (Human Embryonic Kidney, ATCC No. CRL-1573) cells with a murine leukemia retrovirus vector, to prepare a cell line stably expressing EDNRA (EDNRA/293 cells). DMEM (Dulbecco's Modified Eagle Medium) supplemented with 10% fetal bovine serum and penicillin and streptomycin was used as the culture medium.
One day before measurement, the EDNRA/293 cells were inoculated on a 384-well plate at 5000 cells/well. On the day of measurement, a fluorescent reagent for calcium measurement (Calcium4, Molecular Device) dissolved in Hanks balanced buffer solution was added to each well, and allowed standing for about 1 hour.
Endothelin, an EDNRA ligand (activator) was applied to the wells not treated with the specimens, and the resulting activation (calcium elevation) reaction was detected by a measuring instrument (FDSS7000, Hamamatsu Photonics) to obtain a dose-dependent activation reaction as shown in FIG. 1. At doses of 1 nM or more, the activation reaction became almost saturated. For this reason, the doses of endothelin used for detection in the suppression reactions below were set at 0.03, 0.1 or 0.3 nM.

CYP2C9 [8] = target: T2, CYP2C9; assay: Time-dependent CYP inhibition (Method 1), human hepatic microsome; format: in vitro ADME; conditions: 30 min pre-incubation at 37° C., tolbutamide, average, n = 2
Experimental: (§2) Competitive inhibition of CYP was also tested as Method 2. […] The test substance was added to an enzyme solution (containing human hepatic microsome (0.2 mg/mL), 100 mM Kpi and 0.1 mM EDTA), and pre-incubated for 30 minutes at 37° C. in the presence of or absence of the coenzyme. The final concentration of the test substance was set at 0.1, 0.2, 0.4, 0.5, 1, 2, 10 or 50 μM. A NADPH generating system (60 mM MgCl2 solution containing 3.6 mM β-NADP^+, 90 mM glucose-6-phosphate and 1 Unit/mL glucose-6-phosphate dehydrogenase, incubated for 5 minutes to generate NADPH) was used as the coenzyme. After pre-incubation, part of the reaction solution was collected, diluted 10 times by mixing with a model substrate solution and the NADPH generating system, and then incubated for 10 minutes at 37° C. An equal amount of a mixed solution of acetonitrile and methanol (1:1, containing 0.05 μM dextrophan or 0.05 μM propranolol as an internal standard) was added to terminate the reaction, and metabolites of the model substrate in the reaction solution were measured by LC-MS/MS. A similar test was also performed with no test substance added as a control test. The ratio relative to the amount of model substrate metabolites in the control test was given as residual activity. The ratio of residual activity in the presence of NADPH relative to residual activity in the absence of NADPH was evaluated, and the ratio of 80% or less was defined “+”, while the ratio of above 80% was defined as “−”. [table]

CYP1A2 [9] = target: T3, CYP1A2; assay: as above; format: in vitro ADME; conditions: 30 min pre-incubation at 37° C., phenacetin, average, n = 2
Experimental: as §2

CYP2D6 [10] = target: T4, CYP2D6; assay: as above; format: in vitro ADME; conditions: 30 min pre-incubation at 37° C., bufuralol, average, n = 2
Experimental: as §2

CYP3A4 [11] = target: T5, CYP3A4; assay: as above; format: in vitro ADME; conditions: 30 min pre-incubation at 37° C., midazolam, average, n = 2
Experimental: as §2

T5 sequence (P08684 whole entry): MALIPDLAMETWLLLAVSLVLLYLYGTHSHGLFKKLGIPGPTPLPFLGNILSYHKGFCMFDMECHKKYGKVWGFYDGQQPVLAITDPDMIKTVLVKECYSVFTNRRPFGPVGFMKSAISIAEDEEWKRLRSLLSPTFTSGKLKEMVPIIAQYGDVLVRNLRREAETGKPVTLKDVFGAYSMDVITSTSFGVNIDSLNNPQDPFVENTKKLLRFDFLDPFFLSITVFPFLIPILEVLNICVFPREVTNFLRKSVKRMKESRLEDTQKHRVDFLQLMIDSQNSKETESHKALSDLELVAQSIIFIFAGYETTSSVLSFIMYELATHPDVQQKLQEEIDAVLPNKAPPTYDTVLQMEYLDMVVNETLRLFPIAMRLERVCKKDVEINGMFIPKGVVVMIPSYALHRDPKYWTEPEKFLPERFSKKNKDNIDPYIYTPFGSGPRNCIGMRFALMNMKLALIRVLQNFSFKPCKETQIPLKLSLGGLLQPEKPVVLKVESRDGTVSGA
T1 sequence (P33261 whole entry): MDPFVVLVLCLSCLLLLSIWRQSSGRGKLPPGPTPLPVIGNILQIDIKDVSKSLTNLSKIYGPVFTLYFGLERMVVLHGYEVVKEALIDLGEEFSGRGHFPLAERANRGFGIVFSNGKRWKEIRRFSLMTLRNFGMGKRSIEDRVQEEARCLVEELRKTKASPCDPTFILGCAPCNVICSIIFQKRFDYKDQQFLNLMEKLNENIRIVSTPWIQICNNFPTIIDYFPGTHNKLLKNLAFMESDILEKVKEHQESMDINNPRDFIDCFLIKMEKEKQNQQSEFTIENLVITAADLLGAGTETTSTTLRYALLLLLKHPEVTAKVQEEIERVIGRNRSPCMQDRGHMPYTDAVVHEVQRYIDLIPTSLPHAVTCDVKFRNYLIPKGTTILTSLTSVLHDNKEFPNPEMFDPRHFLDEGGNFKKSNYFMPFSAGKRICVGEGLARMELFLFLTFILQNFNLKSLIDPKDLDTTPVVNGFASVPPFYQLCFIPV
T4 sequence (P10635 whole entry): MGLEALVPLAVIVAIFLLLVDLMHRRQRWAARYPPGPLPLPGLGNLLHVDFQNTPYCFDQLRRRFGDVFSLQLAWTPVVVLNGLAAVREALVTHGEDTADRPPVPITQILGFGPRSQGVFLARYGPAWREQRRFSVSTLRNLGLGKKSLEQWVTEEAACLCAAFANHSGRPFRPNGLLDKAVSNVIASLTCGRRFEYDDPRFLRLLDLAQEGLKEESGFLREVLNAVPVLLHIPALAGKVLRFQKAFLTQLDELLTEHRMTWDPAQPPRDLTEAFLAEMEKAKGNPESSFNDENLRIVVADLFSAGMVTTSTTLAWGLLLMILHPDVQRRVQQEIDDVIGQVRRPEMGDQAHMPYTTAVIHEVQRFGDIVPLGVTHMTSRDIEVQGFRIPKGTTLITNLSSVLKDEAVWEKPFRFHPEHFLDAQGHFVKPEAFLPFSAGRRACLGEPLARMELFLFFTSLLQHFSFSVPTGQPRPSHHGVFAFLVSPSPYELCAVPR
T2 sequence (P11712 whole entry): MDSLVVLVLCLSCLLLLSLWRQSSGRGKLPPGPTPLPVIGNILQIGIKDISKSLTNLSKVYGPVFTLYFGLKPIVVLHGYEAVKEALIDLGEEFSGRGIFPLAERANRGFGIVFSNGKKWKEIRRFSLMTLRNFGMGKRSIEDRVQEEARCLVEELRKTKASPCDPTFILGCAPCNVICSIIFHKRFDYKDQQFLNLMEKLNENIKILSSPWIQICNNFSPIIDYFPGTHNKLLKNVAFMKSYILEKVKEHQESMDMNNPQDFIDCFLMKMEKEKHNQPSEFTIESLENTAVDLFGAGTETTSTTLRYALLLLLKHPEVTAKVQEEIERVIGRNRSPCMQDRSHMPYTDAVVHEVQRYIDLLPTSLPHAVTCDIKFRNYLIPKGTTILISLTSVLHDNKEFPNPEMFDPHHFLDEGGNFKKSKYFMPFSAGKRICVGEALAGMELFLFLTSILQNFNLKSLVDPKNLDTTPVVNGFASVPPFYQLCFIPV

| IC50 (CYP2C19 [2]) | IC50 at 10 min (CYP2C9 [3]) | IC50 (CYP1A2 [4]) | IC50 (CYP2D6 [5]) | IC50 (CYP3A4 [6]) | Suppression of activation (calcium elevation) reaction by endothelin [7] | Structure (SMILES) | Ratio of residual CYP2C19 activity in presence of NADPH relative to absence of NADPH (CYP2C19 [1]; test substance 10 μM) | Ratio of residual CYP2C19 activity in presence of NADPH relative to absence of NADPH (CYP2C19 [1]; test substance 50 μM) | Ratio of residual CYP2C9 activity in presence of NADPH relative to absence of NADPH (CYP2C9 [8]; test substance 10 μM) | Ratio of residual CYP2C9 activity in presence of NADPH relative to absence of NADPH (CYP2C9 [8]; test substance 50 μM) | Ratio of residual CYP1A2 activity in presence of NADPH relative to absence of NADPH (CYP1A2 [9]; test substance 10 μM) | Ratio of residual CYP1A2 activity in presence of NADPH relative to absence of NADPH (CYP1A2 [9]; test substance 50 μM) | Ratio of residual CYP2D6 activity in presence of NADPH relative to absence of NADPH (CYP2D6 [10]; test substance 10 μM) | Ratio of residual CYP2D6 activity in presence of NADPH relative to absence of NADPH (CYP2D6 [10]; test substance 50 μM) | Ratio of residual CYP3A4 activity in presence of NADPH relative to absence of NADPH (CYP3A4 [11]; test substance 10 μM) | Ratio of residual CYP3A4 activity in presence of NADPH relative to absence of NADPH (CYP3A4 [11]; test substance 50 μM) |
| --- | --- | --- | --- | --- | --- | --- | --- | --- | --- | --- | --- | --- | --- | --- | --- | --- |
| > 10 µM | < 1 µM | > 10 µM | > 10 µM | > 10 µM | suppressed the activation reaction | Cc1cc2c(cc1CC(=O)c1sccc1S(=O)(=O)Nc1onc(C)c1Cl)COC2 [Example 1, N-(4-chloro-3-methyl-1,2-oxazol-5-yl)-2-[2-(6-methyl-1,3-dihydro-2-benzofuran-5-yl)acetyl]thiophene-3-sulfonamide] | − (the ratio of above 80% was defined as “−”) | − (the ratio of above 80% was defined as “−”) | − (the ratio of above 80% was defined as “−”) | − (the ratio of above 80% was defined as “−”) | − (the ratio of above 80% was defined as “−”) | − (the ratio of above 80% was defined as “−”) | − (the ratio of above 80% was defined as “−”) | − (the ratio of above 80% was defined as “−”) | − (the ratio of above 80% was defined as “−”) | + (the ratio of 80% or less was defined “+”) |
| 1 to 10 µM | < 1 µM | > 10 µM | > 10 µM | – | suppressed the activation reaction | Cc1cc2c(cc1CC(=O)c1sccc1S(=O)(=O)Nc1onc(C)c1Cl)OCO2 [Sitaxentan, N-(4-chloro-3-methyl-1,2-oxazol-5-yl)-2-[2-(6-methyl-2H-1,3-benzodioxol-5-yl)acetyl]thiophene-3-sulfonamide, reference compound] | – | – | – | – | – | – | – | – | – | – |
